Experimental data published in paper PMC12029836, “Phytotoxicity, Cytotoxicity, and Antimicrobial Activity of Triethanolammonium Amino Acids Salts” (Molecules, 2025).
Values joined by “and” are separate entries in the source; they are usually repeats but may differ in a detail not shown here. Equal values may be shown once. Read-outs that look alike come from different tables or passages of the source.

What was measured:
L929 fibroblasts = experiment: Mammalian cell cytotoxicity screening, resazurin viability; format: cell-based, mouse
C. albicans ATCC 10231 = experiment: Antimicrobial activity, broth microdilution MIC/MBC; format: cell-based, Candida albicans; details: C. albicans ATCC 10231, 24 h at 37 °C, at least 90% growth inhibition; nd—not detected
[1] = tested on: Lepidium sativum L. seeds; details: 24 h incubation, mean(±SD), n = 3
[2] = tested on: Lepidium sativum L. roots; details: 24 h incubation, mean(±SD), n = 3
S. aureus ATCC 6538 = experiment: Antimicrobial activity, broth microdilution MIC/MBC; format: cell-based, Staphylococcus aureus; details: nd—not detected; for MIC (%): S. aureus ATCC 6538, 24 h at 37 °C, at least 90% growth inhibition
E. coli ATCC 8739 = experiment: as above; format: cell-based, Escherichia coli; details: nd—not detected; for MIC (%): E. coli ATCC 8739, 24 h at 37 °C, at least 90% growth inhibition; for MBC (%): E. coli ATCC 8739
[3] = 0.01% (w/w) compound in the medium
[4] = 0.03% (w/w) compound in the medium
[5] = 0.05% (w/w) compound in the medium
[6] = 0.10% (w/w) compound in the medium
[7] = 0.30% (w/w) compound in the medium
[8] = 0.50% (w/w) compound in the medium
[9] = 1.00% (w/w) compound in the medium
[10] = 2.00% (w/w) compound in the medium
[11] = 4.00% (w/w) compound in the medium
[12] = 5.00% (w/w) compound in the medium
[13] = 3.00% (w/w) compound in the medium

SMILES | MIC (%) (C. albicans ATCC 10231) | Inhibition of the Lepidium sativum seeds germination (ISG, %) [1, 3] | Inhibition of the Lepidium sativum seeds germination (ISG, %) [1, 4] | Inhibition of the Lepidium sativum seeds germination (ISG, %) [1, 5] | Inhibition of the Lepidium sativum seeds germination (ISG, %) [1, 6] | Inhibition of the Lepidium sativum seeds germination (ISG, %) [1, 7] | Inhibition of the Lepidium sativum seeds germination (ISG, %) [1, 8] | Inhibition of the Lepidium sativum seeds germination (ISG, %) [1, 9] | Inhibition of the Lepidium sativum seeds germination (ISG, %) [1, 10] | Inhibition of the Lepidium sativum seeds germination (ISG, %) [1, 11] | Inhibition of the root growth in pregerminated Lepidium sativum seeds (IRG, %) [2, 3] | Inhibition of the root growth in pregerminated Lepidium sativum seeds (IRG, %) [2, 4] | Inhibition of the root growth in pregerminated Lepidium sativum seeds (IRG, %) [2, 5] | Inhibition of the root growth in pregerminated Lepidium sativum seeds (IRG, %) [2, 7] | Inhibition of the root growth in pregerminated Lepidium sativum seeds (IRG, %) [2, 8] | Inhibition of the root growth in pregerminated Lepidium sativum seeds (IRG, %) [2, 9] | Inhibition of the root growth in pregerminated Lepidium sativum seeds (IRG, %) [2, 10] | Inhibition of the root growth in pregerminated Lepidium sativum seeds (IRG, %) [2, 13] | Inhibition of the root growth in pregerminated Lepidium sativum seeds (IRG, %) [2, 11] | Inhibition of the root growth in pregerminated Lepidium sativum seeds (IRG, %) [2, 12] | further results
CSCC[C@H](N)C(=O)O.OCCN(CCO)CCO [[TEA][Met]] | 5.00 | 0.0(±0.2) % | 0.0(±0.1) % | 0.0(±0.1) % | 0.0(±0.1) % | 0.0(±0.0) % | 1.9(±1.3) % | 3.7(±0.5) % | 7.4(±0.9) % | 29.6(±0.8) % | 0.0(±0.0) % | 0.0(±0.0) % | 0.0(±0.0) % | 22.8(±3.3) % | 30.1(±3.8) % | 52.1(±2.2) % | 60.7(±2.0) % | 64.9(±1.4) % | 77.4(±1.3) % | 77.8(±0.9) % | ED20 (L929 fibroblasts; 24h exposure): 0.08±0.01%; ED50 (L929 fibroblasts; 24h exposure): 0.29±0.02% and 0.29%; ED80 (L929 fibroblasts; 24h exposure): 0.74±0.08%; ED20 (L929 fibroblasts; 48h exposure): 0.09±0.01%; ED50 (L929 fibroblasts; 48h exposure): 0.31±0.02%; ED80 (L929 fibroblasts; 48h exposure): 0.78±0.06%; Inhibition of the Lepidium sativum seeds germination (ISG, %) [1, 12]: 37.0(±2.5) %
NC(CCC(=O)O)C(=O)O.OCCN(CCO)CCO (stereo not shown) [[TEA][Glu]] | 15 | 0.0(±0.0) % | 0.0(±0.0) % | 1.8(±0.5) % | 3.6(±0.8) % | 5.4(±1.3) % | 8.9(±0.8) % | 10.7(±1.3) % | 10.7(±1.3) % | 21.4(±0.5) % | 0.0(±0.0) % and 0% | 0.0(±0.0) % and 0% | 4.0(±2.4) % | 5.8% | 21% | 36.3(±2.2) % | 44.5(±1.8) % | 61.4(±1.0) % | 79.4(±0.8) % | 82.4(±0.5) % | MIC (%) (S. aureus ATCC 6538): 15%; MIC (%) (E. coli ATCC 8739): 7.50%; MBC (%) (E. coli ATCC 8739): 15%; Inhibition of the Lepidium sativum seeds germination (ISG, %) [1, 13]: 14.3%; Inhibition of the Lepidium sativum seeds germination (ISG, %) [1, 12]: 33.9%; Inhibition of the root growth in pregerminated Lepidium sativum seeds (IRG, %) [2, 6]: 4.9(±2.7) %
N=C(N)NCCC[C@H](N)C(=O)O.OCCN(CCO)CCO [[TEA][Arg]] | 0.94 | 0.0(±0.0) % | 0.0(±0.0) % | 0.0(±0.0) % | 0.0(±0.0) % | 1.2(±0.8) % | 5.5(±0.5) % | 15.5(±0.5) % | 25.5(±2.1) % | 58.2(±1.2) % | 9.0(±1.9) % | 20.6(±1.8) % | 31.2(±1.9) % | 53.8(±1.3) % | 56.5(±1.4) % | 65.4(±1.0) % | 74.4(±0.7) % | 84.7(±0.6) % | 93.7(±0.5) % | 98.3(±0.3) % | MIC (%) (S. aureus ATCC 6538): 3.75%; MBC (%) (S. aureus ATCC 6538; S. aureus ATCC 6538): 3.75%; MIC (%) (E. coli ATCC 8739): 3.75%; MBC (%) (E. coli ATCC 8739): 3.75%; Inhibition of the Lepidium sativum seeds germination (ISG, %) [1, 13]: 32.7%; Inhibition of the root growth in pregerminated Lepidium sativum seeds (IRG, %) [2, 6]: 41.9(±1.3) %
